Measured values as given in patent US11091428B2 (HAPLOGEN GMBH, priority 2016, dated 2021).
pEC50, pIC50: −log10 of the molar value. Where two headings read alike, the source gives them in different places.

Key:
[1] = biological target: T1, PLA2G16 (Homo sapiens, UniProt P53816); assay: Enzyme activity assay for PLA2G16 (Red/Green BODIPY PC-A2 fluorescence); format: biochemical; settings: His-tagged PLA2G16, 4 min pre-incubation, 2 nM to 50 μM; read-out: IC50 values of the compounds determined in the enzyme activity assay for PLA2G16
T1 construct: Hexa-His (N); made in house; host or cells: E. coli BL21(DE3)
T1 sequence (P53816 1-162): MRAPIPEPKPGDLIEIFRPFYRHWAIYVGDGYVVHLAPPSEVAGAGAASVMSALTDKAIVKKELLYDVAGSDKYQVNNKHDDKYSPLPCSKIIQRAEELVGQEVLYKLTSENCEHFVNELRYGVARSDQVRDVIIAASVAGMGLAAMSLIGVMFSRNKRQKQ
Summary of the method: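 N-His-tagged human PLA2G16 from E. coli, Ni-NTA purified. Pre-incubated 4 min with compound (2 nM–50 μM final) in pH 8.5 Tris/NaCl buffer with 5 mM glutathione, then BODIPY PC-A2 in DOPC/DOPG/cholesterol vesicles added. Fluorescence (ex 480/em 530 nm) increase over 10 min taken as activity; IC50 by non-linear regression.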

[2] = system: picornaviruses (CVB1, HRV-A2, HRV-A23, EV-68); assay: Anti-picornavirus cytopathic effect (CPE) reduction assay on HeLa H1 cells; format: cell-based; settings: Enterovirus B, HeLa H1 cells, 48 h, category from averaging the EC50 values from four picornaviruses (CVB1, HRV-A2, HRV-A23, EV68), read-out: EC50 values of the compounds determined in the anti-picornavirus assay
Summary of the method: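 HeLa H1 cells pre-treated 2 h with serially diluted compound in DMEM/2% FBS, then infected at an MOI giving full CPE in 2 days. After 48 h at 37° C, viability read by CellTiterBlue fluorescence (ex 560/em 590 nm), normalised to infected and uninfected vehicle controls; EC50 by non-linear regression, category from mean of four viruses.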

SMILES	pIC50 [1]	pEC50 ([2]; HeLa H1, 48 h)	pEC50 ([2]; CVB1|EV68|HRVA2|HRVA23, HeLa H1, 48 h)
COCCC(C(=O)C(=O)NCC1CC1)N(C=O)Cc1ccccc1 (stereo not shown) [FP 70, 3-(N-Benzylformamido)-MN-(cyclopropylmethyl)-5-methoxy-2-oxopentanamide]	> 6.00	5.00 to 6.00	–
O=C(NCC1CCCCC1)C(=O)C1CCC(=O)N1CCC1CCOCC1 (stereo not shown) [FP 245, N-(Cyclohexylmethyl)-2-{1-[2-(oxan-4-yl)ethyl]-5-oxopyrrolidin-2-yl}-2-oxoacetamide]	> 6.00	5.00 to 6.00	–
CC(C(=O)C(=O)NCCOc1ccc(C(N)=O)cc1)N(C=O)C1CCCCC1 (stereo not shown) [FP 114, 4-{2-[3-(N-Cyclohexylformamido)-2-oxobutanamido]ethoxy}benzamide]	> 6.00	< 5.00	–
O=C(NCC1CC1)C(=O)C1CCCC(=O)N1Cc1ccccc1 (stereo not shown) [FP 204, 2-(1-Benzyl-6-oxopiperidin-2-yl)-N-(cyclopropylmethyl)-2-oxoacetamide]	> 6.00	5.00 to 6.00	–
CC(C)C(=O)NCCNC(=O)C(=O)[C@H]1CCC(=O)N1Cc1ccccc1 [FP 331, N-(2-{2-[(2R)-1-Benzyl-5-oxopyrrolidin-2-yl]-2-oxoacetamido}ethyl)-2-methyl-propanamide]	> 6.00	5.00 to 6.00	–
CC(OC1CCCCC1)C(=O)C(=O)NCC1CC1 (stereo not shown) [FP 120, 3-(Cyclohexyloxy)-N-(cyclopropylmethyl)-2-oxobutanamide]	> 6.00	> 6.00	–
COc1ccccc1N(C=O)CCC(=O)C(=O)NCc1cccc(Cl)c1 [FP 115, N-[(3-Chlorophenyl)methyl]-4-[N-(2-methoxyphenyl)formamido]-2-oxobutanamide]	> 6.00	5.00 to 6.00	–
O=C(NCC1CC1)C(=O)C1CCC(=O)N1CCc1ccccc1 (stereo not shown) [FP 253, N-(Cyclopropylmethyl)-2-oxo-2-[5-oxo-1-(2-phenylethyl)pyrrolidin-2-yl]]	> 6.00	5.00 to 6.00	–
O=C(N[C@H]1CCCC[C@H]1O)C(=O)[C@H]1CCC(=O)N1Cc1ccccc1 (single isomer, unassigned) [FP 273]	5.00 to 6.00	5.00 to 6.00	–
CCC(NC(=O)c1ccccc1)C(=O)C(=O)NCC1CC1 (stereo not shown) [FP 155, N-(Cyclopropylmethyl)-2-oxo-3-(phenylformamido)pentanamide]	> 6.00	5.00 to 6.00	–
CC(=O)NCCCCCCNC(=O)C(=O)C1CCC(=O)N1Cc1ccc(Cl)cc1 (stereo not shown) [FP 330, 2-{1-[(4-Chlorophenyl)methyl]-5-oxopyrrolidin-2-yl}-N-(6-acetamidohexyl)-2-oxoacetamide]	> 6.00	5.00 to 6.00	–
O=C(NCc1ncccn1)C(=O)[C@H]1CCC(=O)N1Cc1ccccc1 [FP 298, 2-[(2R)-1-Benzyl-5-oxopyrrolidin-2-yl]-2-oxo-N-[(pyrimidin-2-yl)methyl]acetamide]	> 6.00	5.00 to 6.00	–
CC(OC1CCCCC1)C(=O)C(=O)NCC1CCCC1 (stereo not shown) [FP 127, 3-(Cyclohexyloxy)-N-(cyclopentylmethyl)-2-oxobutanamide]	> 6.00	> 6.00	–
CC(C(=O)C(=O)NCCOC1CCCCC1)N(C=O)C1CCCCC1 (stereo not shown) [FP 55, 3-(N-Cyclohexylformamido)-N-[2-(cyclohexyloxy)ethyl]-2-oxobutanamide]	> 6.00	> 6.00	–
CC(NC(=O)c1ccc(Cl)cc1)C(=O)C(=O)NCC1CC1 (stereo not shown) [FP 170, 3-[(4-Chlorophenyl)formamido]-N-(cyclopropylmethyl)-2-oxobutanamide]	> 6.00	5.00 to 6.00	–
Cc1noc(CCNC(=O)C(=O)[C@H]2CCC(=O)N2Cc2ccccc2)n1 [FP 293, 2-[(2R)-1-Benzyl-5-oxopyrrolidin-2-yl]-N-[2-(3-methyl-1,2,4-oxadiazol-5-yl)ethyl]-2-oxoacetamide]	> 6.00	5.00 to 6.00	–
CC(C(=O)C(=O)NCC1CC1)N(C=O)CC1CCN(C(=O)OC(C)(C)C)CC1 (stereo not shown) [FP 39, tert-Butyl 4-[(N-{1-[(cyclopropylmethyl)carbamoyl]-1-oxopropan-2-yl}formamido)methyl]piperidine-1-carboxylate]	5.00 to 6.00	< 5.00	–
CCC(=O)N(C)C(C)C(=O)C(=O)NCC1CCCCC1 (stereo not shown) [FP 145, N-(Cyclohexylmethyl)-3-(N-methylpropanamido)-2-oxobutanamide]	> 6.00	5.00 to 6.00	–
CC(C(=O)C(=O)NCC1CC1)N(C=O)CC1CCCCC1 (stereo not shown) [FP 38, 3-[N-(Cyclohexylmethyl)formamido]-N-(cyclopropylmethyl)-2-oxobutanamide]	> 6.00	> 6.00	–

SMILES	pIC50 [1]	pEC50 ([2]; HeLa H1, 48 h)	pEC50 ([2]; CVB1|EV68|HRVA2|HRVA23, HeLa H1, 48 h)
CC(C(=O)C(=O)NCC1CCCCC1)N(C=O)C1CCCCC1 (stereo not shown) [FP 52, 3-(N-Cyclohexylformamido)-N-(cyclohexylmethyl)-2-oxobutanamide]	> 6.00	> 6.00	–
CCNC(=O)C(=O)C1N(Cc2ccccc2)C(=O)CC12CC2 (stereo not shown) [FP 348, 2-{5-Benzyl-6-oxo-5-azaspiro[2.4]heptan-4-yl}-N-ethyl-2-oxoacetamide]	> 6.00	> 6.00	–
CC(F)(F)CNC(=O)C(=O)[C@H]1CCC(=O)N1Cc1ccccc1 [FP 295, 2-[(2R)-1-Benzyl-5-oxopyrrolidin-2-yl]-N-(2,2-difluoropropyl)-2-oxoacetamide]	> 6.00	> 6.00	–
O=C(NCCO)C(=O)C1CCC(=O)N1Cc1ccc(Cl)cc1 (stereo not shown) [FP 256, 2-{1-[(4-Chlorophenyl)methyl]-5-oxopyrrolidin-2-yl}-N-(2-hydroxyethyl)-2-oxoacetamide]	> 6.00	5.00 to 6.00	–
COc1ccccc1N(C=O)C(C)C(=O)C(=O)NCc1cc(F)cc(Cl)c1 (stereo not shown) [FP 94, N-[(3-Chloro-5-fluorophenyl)methyl]-3-[N-(2-methoxyphenyl)formamido]-2-oxobutanamide]	> 6.00	> 6.00	–
CC(OCC1CCOCC1)C(=O)C(=O)NCC1CCC1 (stereo not shown) [FP 131, N-(Cyclobutylmethyl)-3-[(oxan-4-yl)methoxy]-2-oxobutanamide]	> 6.00	> 6.00	–
COc1cccc(Cl)c1C(=O)NC(C)C(=O)C(=O)NCC1CC1 (stereo not shown) [FP 212, 3-[(2-Chloro-6-methoxyphenyl)formamido]-N-(cyclopropylmethyl)-2-oxobutanamide]	> 6.00	5.00 to 6.00	–
CC[C@H](C)NC(=O)C(=O)C(C)N(C=O)c1ccccc1OC (stereo partly drawn) [FP 106, N-[(2S)-Butan-2-yl]-3-[N-(2-methoxyphenyl)formamido]-2-oxobutanamide]	> 6.00	5.00 to 6.00	–
CC(C)N(C=O)C(C)C(=O)C(=O)NCC1CCCCC1 (stereo not shown) [FP 48, N-(Cyclohexylmethyl)-2-oxo-3-[N-(propan-2-yl)formamido]butanamide]	> 6.00	5.00 to 6.00	–
O=C(NC1CC1)C(=O)C1CCC(=O)N1CCc1ccccc1 (stereo not shown) [FP 251, N-Cyclopropyl-2-oxo-2-[5-oxo-1-(2-phenylethyl)pyrrolidin-2-yl]acetamide]	> 6.00	5.00 to 6.00	–
CC(C)CC(C(=O)C(=O)NCC1CC1)N(C=O)CC1CC1 (stereo not shown) [FP 62, N-(Cyclopropylmethyl)-3-[N-(cyclopropylmethyl)formamido]-5-methyl-2-oxohexanamide]	> 6.00	> 6.00	–
Cc1cc(CNC(=O)C(=O)[C@H]2CCC(=O)N2Cc2ccccc2)no1 [FP 289, 2-[(2R)-1-Benzyl-5-oxopyrrolidin-2-yl]-N-[(5-methyl-1,2-oxazol-3-yl)methyl]-2-oxoacetamide]	> 6.00	> 6.00	–
CNC(=O)C(=O)C1N(Cc2ccccc2)C(=O)CC12CC2 (stereo not shown) [FP 347, 2-{5-Benzyl-6-oxo-5-azaspiro[2.4]heptan-4-yl}-N-methyl-2-oxoacetamide]	> 6.00	> 6.00	–
Cc1ccccc1S(=O)(=O)NC(C)C(=O)C(=O)NCC1CC1 (stereo not shown) [FP 190, N-(Cyclopropylmethyl)-3-(2-methylbenzenesulfonamido)-2-oxobutanamide]	> 6.00	5.00 to 6.00	–
CC(C)(C)C(=O)N1CCC(NC(=O)C(=O)[C@H]2CCC(=O)N2Cc2ccccc2)CC1 [FP 314, 2-[(2R)-1-Benzyl-5-oxopyrrolidin-2-yl]-N-[1-(2,2-dimethylpropanoyl)piperidin-4-yl]-2-oxoacetamide]	> 6.00	5.00 to 6.00	–
CC(C(=O)C(=O)NCC1CC1)N(C=O)C1CCCCC1 (stereo not shown) [FP 40, 3-(N-Cyclohexylformamido)-N-(cyclopropylmethyl)-2-oxobutanamide]	> 6.00	> 6.00	–
CC(C(=O)C(=O)NCC1CCCCC1)N(C)C(=O)c1ccccc1 (stereo not shown) [FP 176, N-(Cyclohexylmethyl)-3-(N-methyl-1-phenylformamido)-2-oxobutanamide]	> 6.00	> 6.00	–
O=C(NC1CC1)C(=O)[C@H]1CCC(=O)N1Cc1ccccc1	> 6.00	–	> 6.00
O=C(NCCc1ccncc1)C(=O)C1CCC(=O)N1Cc1ccccc1 (stereo not shown) [FP 226, 2-(1-Benzyl-5-oxopyrrolidin-2-yl)-2-oxo-N-[2-(pyridin-4-yl)ethyl]acetamide]	> 6.00	5.00 to 6.00	–
